We go through six molecules from US20180280447A1, “PLACENTA-DERIVED CELLS EXCRETING C3 OR C1R COMPLEMENT AND COMPOSITION CONTAINING SAME” (SUNGKWANG MEDICAL FOUNDATION, priority 2014, published 2018).

Common to all, as to assay type: cell-based, human
Data set [1] concerns hPDCs. Briefly: Suppression of FGF4 downstream signaling (ERK, JNK) in hPDCs. As to the method:
[…] To analyze suppression of Notch signaling, ASCs were in cultured for 1 hour in a 10% FBS-supplemented alpha-MEM medium pretreated with or without 50 μM of Notch-inhibiting DAPT (N—[N-(3,5-difluorophenacetyl)-1-alanyl]-S-phenylglycine t-butyl ester, Sigma), and then stimulated with 25 ng/mL FGF4 for 3 days.
Cells were first fixed in 4% PFA at room temperature for 15 minutes, and then permeabilized with 0.1% Triton X-100 for 20 minutes, followed by blocking with 10% normal goat serum (NGS). The following primary antibodies were used: anti-neuron classIII β-tubulin (Tuji), -Nestin (Covance), -Ki-67 (Novocastra), -SOX2, -NANOG, KLF4, Brachyury/Bry (all from Abcam), OCT3/4, GATA4 (all from Santa Cruz). Cells were incubated with Alexa Fluor 488 or 594-conjugated antibody (Molecular Probes) at room temperature for 1 hour, and to examine nuclei, cells were stained with 4′, 6-diamino-2-phenylindole (DAPI, 2 mg/mL in PBS). A cover-slip was sealed to a glass slide. Cells were visualized by a fluorescence microscope or a confocal fluorescence microscope (LSM 510 confocal microscope, Zeiss).

In data set [2] the test system is hPDCs. As to the kind of experiment: Notch/DLL1 signaling in nerve/neuron induction of hPDCs. As to the method: (§1) Quantitative RT-PCR: Total RNA was isolated from cells using TRizol (Invitrogen). cDNA was synthesized from 1 μg of total RNA using Superscript II reverse transcriptase, Oligo-d(T) 12-18 primer, DTT, and dNTPs according to the manufacturer's protocol. RT-PCR was performed by using a Pre-Mix kit (Bioneer). A PCR product was electrophoresed on a 2% agarose gel using RedGel (Biotium, Inc), and visualized by a UV-transilluminator.
To suppress FGF4 downstream signaling, hPDCs were cultured for 1 hour in a 10% FBS-supplemented alpha-MEM medium pretreated with or without 5 μM of ERK-inhibiting U0126 or 10 μM of JNK-inhibiting SP600125 (Calbiochem) in dimethyl sulfoxide (DMSO), and then stimulated with 25 ng/mL FGF4 for 3 days. To analyze suppression of Notch signaling, […] were in cultured for 1 hour in a 10% FBS-supplemented alpha-MEM medium pretreated with or without 50 μM of Notch-inhibiting DAPT (N—[N-(3,5-difluorophenacetyl)-1-alanyl]-S-phenylglycine t-butyl ester, Sigma), and then stimulated with 25 ng/mL FGF4 for 3 days.

The test system of another data set is TGF-β1 mRNA. Briefly: TGF-β1 gene silencing by siRNA in PDCs. The text has this: Using the human nucleotide sequences for TGF-β1 mRNA obtained from GenBank (GI:260655621) and referring to the design strategy of siRNA, two pairs of 21-bp reverse repeat sequences targeting TGF-β1 mRNA were synthesized by Bioneer (Seoul, Korea). siRNA targeted forward: 5′. CAGAGUACACACAGCAUAU-3′(1243-1261) (SEQ ID NO: 31); reverse, 5′-AUAUGCUGUGUGUACUCUG-3′(1261-1243) (SEQ ID NO: 32) of the TGF-β coding sequence. siRNA (at a final concentration of 100 pmol) was transfected with Upofectamine 2000 (Invitrogen, Gaithersburg, Md.) according to the manufacturer's instructions. The efficacy of TGF-β1 gene silencing was assessed by quantitative real-time PCR and Western blotting.

Data set [3] concerns hPDCs. As to the kind of experiment: Neural induction of hPDCs by FGF4. The settings on record: 3 days. The procedure: as §1
Immunoblotting analysis: Cells were washed with cold PBS, and lysed with a lysis buffer containing a protease inhibitor cocktail (Pierce). A total cell lysate was normalized with a Bradford reagent (Bio-Rad), and 30˜50 μg of the cell lysate was applied to 8˜12% SDS-PAGE and transferred onto a PVDF membrane (Milipore). The membrane was blocked with TBS-T (50 mM Tris-HCl, pH 7.6, 150 mM NaCl, 0.05% Tween-20) containing 5% skim milk (Becton Dickinson), and examined with respective antibodies. An immune reaction was performed by using an ECL Western Blotting system (Millipore, Amersham). […]
Cells were first fixed in 4% PFA at room temperature for 15 minutes, and then permeabilized with 0.1% Triton X-100 for 20 minutes, followed by blocking with 10% normal goat serum (NGS). […] Cells were visualized by a fluorescence microscope or a confocal fluorescence microscope (LSM 510 confocal microscope, Zeiss).

Take `N#CC(=C(/N)Sc1ccccc1N)/C(C#N)=C(\N)Sc1ccccc1N` [U0126]: the “% Ki-67+ cells in total DAPI+ cells” value in the data set on hPDCs [1] (5 mM U0216) amounted to 64.46±2.14%. Also, the “Nestin+ total cells” value in the data set on hPDCs [1] (5 mM U0216, FGF4, 72 hours) is on record as 47.61±3.46. The Nestin protein levels entry with hPDCs [1] (FGF4-treated hPDCs, immunoblotting) is “decrease in Nestin protein levels”.

On to `Oc1c2ccccc2c2c3c(cccc13)N=N2` [SP600125], for which, in the data set with hPDCs [1] (SP600125), the “% Ki-67 cells in total DAPI+ cells” value amounted to 37.53±1.89%. In the data set on hPDCs [1] (SP600125, FGF4, 72 hours), the “Nestin+ total cells” value came out at 48.47±3.07.

Turning to `C[C@H](NC(=O)Cc1cc(F)cc(F)c1)C(=O)N[C@H](C(=O)OC(C)(C)C)c1ccccc1` [DAPT, N—[N-(3,5-difluorophenacetyl)-1-alanyl]-S-phenylglycine t-butyl ester], the “DLL1, Nestin, and TUJ1 gene expression” value in the data set on hPDCs [2] (compared with DMSO-treated cells, HD culture with FGF4) was “significantly low levels”.

Take “TGF-β siRNA: siRNA targeting TGF-β1 mRNA, SEQ ID NO: 31 and 32, synthesized by Bioneer (chain 1 CAGAGUACACACAGCAUAU; chain 2 AUAUGCUGUGUGUACUCUG; listed as RNA, chemistry not given here)”: the “PEDF and Ang-1 expressions” value with TGF-β1 mRNA (after TGF-β siRNA transfection) is “no changes”. For the same molecule, the “decrease of TGF-β expression” value in the data set with TGF-β1 mRNA (quantitative real-time PCR, compared with control PDCs) is reported as 80-90%.

B1: DLL1-FLAG: recombinant DLL1 protein (protein, UniProt O00548 18-545, looked up)
extracellular domain: QVWSSGVFELKLQEFVNKKGLLGNRNCCRGGAGPPPCACRTFFRVCLKHYQASVSPEPPCTYGSAVTPVLGVDSFSLPDGGGADSAFSNPIRFPFGFTWPGTFSLIIEALHTDSPDDLATENPERLISRLATQRHLTVGEEWSQDLHSSGRTDLKYSYRFVCDEHYYGEGCSVFCRPRDDAFGHFTCGERGEKVCNPGWKGPYCTEPICLPGCDEQHGFCDKPGECKCRVGWQGRYCDECIRYPGCLHGTCQQPWQCNCQEGWGGLFCNQDLNYCTHHKPCKNGATCTNTGQGSYTCSCRPGYTGATCELGIDECDPSPCKNGGSCTDLENSYSCTCPPGFYGKICELSAMTCADGPCFNGGRCSDSPDGGYSCRCPVGYSGFNCEKKIDYCSSSPCSNGAKCVDLGDAYLCRCQAGFSGRHCDDNVDDCASSPCANGGTCRDGVNDFSCTCPPGYTGRNCSAPVSRCEHAPCHNGATCHERGHRYVCECARGYGGPNCQFLLPELPPGPAVVDLTEKLEGQGGPFPW
modifications: extracellular domain FLAG tag
notes: recombinant DLL1 protein
For B1, the “mRNA levels of DLL1, Nestin, and TUJ1” value with hPDCs [2] (three days with FGF4 in hPDC cultures) is reported as “up-regulated”.

B2: FGF4: growth factor (R&D Systems) tested for neural induction of hPDCs (protein, UniProt P08620 31-206, looked up)
Fibroblast growth factor 4: APTAPNGTLEAELERRWESLVALSLARLPVAAQPKEAAVQSGAGDYLLGIKRLRRLYCNVGIGFHLQALPDGRIGGAHADTRDSLLELSPVERGVVSIFGVASRFFVAMSSKGKLYGSPFFTDECTFKEILLPNNYNAYESYKYPGMFIALSKNGKTKKGNRVSPTMKVTHFLPRL
As to B2, in the data set on hPDCs [3] (25 ng/mL FGF4 vs 10 ng/mL EGF or 10 ng/mL bFGF), the “expression levels of Nestin and Musashi1” value was “much higher”. The “mRNA expression level of Nestin” value with hPDCs [3] (25 ng/mL among 10, 25, 50 ng/mL) is recorded as “highest mRNA expression level of Nestin”.
